Assay [1] has as its system HCT116 MTAP+/+. Briefly: Inhibition of cellular proliferation (Cell Titer Glo), HCT116 MTAP+/+. The note with it: Homo sapiens, HCT-116, 96 h, Table 5a, 4 days, read-out: 4 Day Relative Growth Inhibition (MTAP +/+). The format is cell-based. In short, it runs like this: (§1)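 After 4 days of compound exposure at 37 °C, starting 24 h after plating, growth of the MTAP-wildtype and MTAP-deleted HCT116 pair was measured as ATP luminescence (CellTiter-Glo). The proliferation index was signal minus no-cell blank, divided by blank-corrected 0.2% DMSO control.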
For orientation: In ATP-based viability assays light output follows the ATP content of the culture.

Assay [2] deals with HCT116 MTAP-/-. Briefly: Inhibition of cellular proliferation (Cell Titer Glo), HCT116 MTAP-/-. The class given is cell-based, human. The note with it: Homo sapiens, HCT-116, 96 h, Table 5a, 4 days, read-out: 4 Day Relative Growth Inhibition (MTAP −/−). The essentials: as §1
Assay [3] addresses T1, MAT2A homodimer (Homo sapiens, UniProt P31153).
T1 construct: inferred from the Ni sepharose purification and imidazole elution; made in house; host or cells: SF9 insect cells, recombinant baculovirus (Bac to Bac, pFASTBAC1)
Briefly: MAT2A biochemical assay (liberated phosphate, PiColorLock Gold). The following applies: Table 5a; MAT2A biochemical assay; read-out: Enzyme Inhibition. In short, it runs like this: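 Readout is liberated phosphate (PiColorLock Gold), stoichiometric with SAM production, quantified against a potassium phosphate standard curve. Enzyme: recombinant MAT2A homodimer from Sf9, equilibrated 60 min at 25 °C with compound before 60 min reaction with substrate mix containing 500 μM ATP and 400 μM L-methionine.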

Assay [4] has as its system SAM in HCT116 MTAP-deleted cells. In words: Cellular assay of target engagement (SAM), LC-MS/MS. The class given is cell-based, human. The following applies: Homo sapiens, HCT-116, Table 5a, 72 h, read-out: Cell 72 h SAM Inhibition (MTAP −/−). The essentials: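 Target engagement was read as intracellular SAM, measured by LC-MS/MS with d3-SAM as internal standard in methanol/acetic acid extracts. These came from MTAP-deleted HCT116 colon carcinoma cells exposed to inhibitor for 72 hrs.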

T1 sequence (P31153 whole entry): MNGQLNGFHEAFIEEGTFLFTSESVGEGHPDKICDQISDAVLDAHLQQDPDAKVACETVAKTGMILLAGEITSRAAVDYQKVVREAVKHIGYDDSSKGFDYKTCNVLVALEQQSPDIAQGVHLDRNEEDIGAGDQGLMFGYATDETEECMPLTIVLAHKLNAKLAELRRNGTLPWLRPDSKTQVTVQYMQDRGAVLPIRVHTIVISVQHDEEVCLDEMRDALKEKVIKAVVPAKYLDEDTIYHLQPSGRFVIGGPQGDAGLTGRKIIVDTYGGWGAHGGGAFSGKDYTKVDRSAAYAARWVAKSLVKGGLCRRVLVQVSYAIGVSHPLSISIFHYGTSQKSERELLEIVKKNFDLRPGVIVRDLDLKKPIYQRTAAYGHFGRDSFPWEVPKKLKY

Consider `Cc1nc2ccc(N3Cc4cnc(NCC(F)(F)F)nc4N(c4ccc(-c5nc[nH]n5)cc4)C3=O)cc2s1` [Example 217, 1-(4-(1H-1,2,4-triazol-3-yl)phenyl)-3-(2-methylbenzo[d]thiazol-6-yl)-7-((2,2,2-trifluoroethyl)amino)-3,4-dihydropyrimido[4,5-d]pyrimidin-2(1H)-one], for which the IC50 was greater than 1000 nM in assay [1], less than 100 nM in assay [2], less than 100 nM in assay [3] and less than 100 nM in assay [4].
Turning to `Cn1cnc2ccc(N3Cc4cnc(NCC(F)(F)F)nc4N(c4ccc(-c5nc[nH]n5)cc4)C3=O)cc21` [Example 218, 1-(4-(1H-1,2,4-triazol-3-yl)phenyl)-3-(1-methyl-1H-benzo[d]imidazol-6-yl)-7-((2,2,2-trifluoroethyl)amino)-3,4-dihydropyrimido[4,5-d]pyrimidin-2(1H)-one], the IC50 in assay [1] is greater than 1000 nM; in assay [2], 100 to 1000 nM; in assay [3], less than 100 nM; in assay [4], 100 to 1000 nM.
In the case of `O=C1N(c2ccc3ncsc3c2)Cc2cnc(NCC(F)(F)F)nc2N1c1ccc(-c2nc[nH]n2)cc1` [Example 219, 1-(4-(1H-1,2,4-triazol-3-yl)phenyl)-3-(benzo[d]thiazol-6-yl)-7-((2,2,2-trifluoroethyl)amino)-3,4-dihydropyrimido[4,5-d]pyrimidin-2(1H)-one], the IC50 was greater than 1000 nM in assay [1], 100 to 1000 nM in assay [2], less than 100 nM in assay [3] and less than 100 nM in assay [4].
For `Cn1cc2cc(N3Cc4cnc(NCC(F)(F)F)nc4N(c4ccc(-c5nc[nH]n5)cc4)C3=O)ccc2n1` [Example 220, 1-(4-(1H-1,2,4-triazol-3-yl)phenyl)-3-(2-methyl-2H-indazol-5-yl)-7-((2,2,2-trifluoroethyl)amino)-3,4-dihydropyrimido[4,5-d]pyrimidin-2(1H)-one], the IC50 in assay [1] was greater than 1000 nM; in assay [2], 100 to 1000 nM; in assay [3], less than 100 nM; in assay [4] it was 100 to 1000 nM.
`O=C1N(c2ccc3ncccc3c2)Cc2cnc(NCC(F)(F)F)nc2N1c1ccc(-c2nc[nH]n2)cc1` [Example 223, 1-(4-(1H-1,2,4-triazol-3-yl)phenyl)-3-(quinolin-6-yl)-7-((2,2,2-trifluoroethyl)amino)-3,4-dihydropyrimido[4,5-d]pyrimidin-2(1H)-one]: the IC50 in assay [1] is greater than 1000 nM; in assay [2], 100 to 1000 nM; in assay [3] it was less than 100 nM; in assay [4] it was less than 100 nM.
Regarding `COc1ccc(N2C(=O)N(c3ccnc(OC)c3)Cc3cnc(NCC(F)(F)F)nc32)cc1` [Example 228, 1-(4-methoxyphenyl)-3-(2-methoxypyridin-4-yl)-7-((2,2,2-trifluoroethyl)amino)-3,4-dihydropyrimido[4,5-d]pyrimidin-2(1H)-one], the IC50 in assay [1] was greater than 1000 nM; in assay [2] it was 100 to 1000 nM; in assay [3], less than 100 nM; in assay [4] it was 100 to 1000 nM.
For the molecule `COc1ccc(N2C(=O)N(c3cn[nH]c3)Cc3cnc(NCC(F)(F)F)nc32)cc1` [Example 231, 1-(4-methoxyphenyl)-3-(1H-pyrazol-4-yl)-7-((2,2,2-trifluoroethyl)amino)-3,4-dihydropyrimido[4,5-d]pyrimidin-2(1H)-one], the IC50 in assay [1] is greater than 1000 nM; in assay [2], greater than 1000 nM; in assay [3] it was 100 to 1000 nM; in assay [4], 100 to 1000 nM.
With `COc1ccc(N2C(=O)N(c3ccc(=O)n(C)c3)Cc3cnc(NCC(F)(F)F)nc32)cc1` [Example 232, 1-(4-methoxyphenyl)-3-(1-methyl-6-oxo-1,6-dihydropyridin-3-yl)-7-((2,2,2-trifluoroethyl)amino)-3,4-dihydropyrimido[4,5-d]pyrimidin-2(1H)-one], the IC50 in assay [1] is greater than 1000 nM; in assay [2], greater than 1000 nM; in assay [3], 100 to 1000 nM; in assay [4] it was greater than 1000 nM.
With `COc1ccc(N2C(=O)N(c3ccc4[nH]cnc4c3)Cc3cnc(NCC(F)(F)F)nc32)cc1` [Example 234, 3-(1H-benzo[d]imidazol-5-yl)-1-(4-methoxyphenyl)-7-((2,2,2-trifluoroethyl)amino)-3,4-dihydropyrimido[4,5-d]pyrimidin-2(1H)-one], the IC50 is greater than 1000 nM in assay [1], 100 to 1000 nM in assay [2], less than 100 nM in assay [3] and 100 to 1000 nM in assay [4].
As to `COc1ccc(N2Cc3cnc(NCC(F)(F)F)nc3N(c3ccc(OC(F)F)cc3)C2=O)cc1` [Example 235, 1-(4-(Difluoromethoxy)phenyl)-3-(4-methoxyphenyl)-7-(2,2,2-trifluoroethylamino)-3,4-dihydropyrimido[4,5-d]pyrimidin-2(1H)-one], the IC50 in assay [1] is greater than 1000 nM; in assay [2] it was 100 to 1000 nM; in assay [3], less than 100 nM; in assay [4], 100 to 1000 nM.
Consider `COc1ccc(N2Cc3cnc(NCC(F)(F)F)nc3N(c3ccc(Br)cc3)C2=O)cc1` [Example 236, 1-(4-bromophenyl)-3-(4-methoxyphenyl)-7-((2,2,2-trifluoroethyl)amino)-3,4-dihydropyrimido[4,5-d]pyrimidin-2(1H)-one], for which the IC50 in assay [1] was greater than 1000 nM; in assay [2], greater than 1000 nM; in assay [3], less than 100 nM; in assay [4], 100 to 1000 nM.
Consider `COc1ccc(N2C(=O)N(c3ccc4nccn4c3)Cc3cnc(NCC(F)(F)F)nc32)cc1` [Example 237], for which the IC50 is greater than 1000 nM in assay [1], 100 to 1000 nM in assay [2], less than 100 nM in assay [3] and 100 to 1000 nM in assay [4].
In the case of `COc1ccc(N2C(=O)N(c3ccc4ncccc4c3)Cc3cnc(NCC(F)(F)F)nc32)cc1` [Example 241], the IC50 in assay [1] is greater than 1000 nM; in assay [2], 100 to 1000 nM; in assay [3], less than 100 nM; in assay [4] it was 100 to 1000 nM.
Regarding `COc1ccc(N2Cc3cnc(NCC(F)(F)F)nc3N(c3ccc(C4CC4)cc3)C2=O)cc1` [Example 242, 1-(4-cyclopropylphenyl)-3-(4-methoxyphenyl)-7-((2,2,2-trifluoroethyl)amino)-3,4-dihydropyrimido[4,5-d]pyrimidin-2(1H)-one], the IC50 in assay [1] is greater than 1000 nM; in assay [2], 100 to 1000 nM; in assay [3], less than 100 nM; in assay [4] it was 100 to 1000 nM.
On to `COc1ccc(N2C(=O)N(c3ccc4nn(C)cc4c3)Cc3c(OC)nc(NCC(F)(F)F)nc32)cc1` [Example 246, 5-methoxy-1-(4-methoxyphenyl)-3-(2-methyl-2H-indazol-5-yl)-7-((2,2,2-trifluoroethyl)amino)-3,4-dihydropyrimido[4,5-d]pyrimidin-2(1H)-one], for which the IC50 in assay [1] was greater than 1000 nM; in assay [2], 100 to 1000 nM; in assay [3], less than 100 nM; in assay [4], 100 to 1000 nM.
In the case of `COc1ccc(N2C(=O)N(c3ccc4nn(C)cc4c3)Cc3c(C)nc(NCC(F)(F)F)nc32)cc1` [Example 247, 1-(4-methoxyphenyl)-5-methyl-3-(2-methyl-2H-indazol-5-yl)-7-((2,2,2-trifluoroethyl)amino)-3,4-dihydropyrimido[4,5-d]pyrimidin-2(1H)-one], the IC50 in assay [1] is 100 to 1000 nM; in assay [2], less than 100 nM; in assay [3] it was less than 100 nM; in assay [4], less than 100 nM.

The values are drawn from patent US20220098203A1 (priority 2018, published 2022).
